For experiment [1], the species on record is Homo sapiens. Description: The ability to inhibit late component of human complement (C3-C9) using C-late assay.
Experiment [2] is filed under the species Homo sapiens. Nature of the experiment: Ability to destroy fluid-phase human complement 1 in the presence of complement 4 with appropriate serial twofold dilutions of the test compound using C1 assay.
The species entered for experiment [3] is Cavia porcellus. Nature of the experiment: Evaluated in vitro for complement activity using guinea pig serum was determined by cap 50 assay. Particulars: for EC50: read-out: ED50 (the source's name). Type of experiment: functional.
Experiment [4] can be described thus: Inhibition of the complement alternative pathway by Mercaptan-treated human erythrocytes lyse in autologous serum via the alternative pathway activated by cobra venom factor in the presence of appropriate serial twofold dilutions of the test compound.
Experiment [5] concerns Cavia porcellus. Description: Evaluated in vivo after intraperitoneal administration by guinea pig assay. The format is functional.

The values that follow come from ChEMBL document CHEMBL1121398, “Synthetic modulators of the complement system. 1. Synthesis and biological activity of 5,5',5''-[1,3,6-naphthalenetriyltris(sulfonylimino)]-tris[1,3-benzenedisulfonic acid] hexasodium salt” (1980).

The Inhibition is the drop in the measured response relative to a control, in per cent.

In brackets after ≈: the same amount, converted by molar mass.

`Cc1ccc(C(=O)Nc2ccc(S(=O)(=O)O)c3cc(S(=O)(=O)O)cc(S(=O)(=O)O)c23)cc1NC(=O)c1cccc(NC(=O)Nc2cccc(C(=O)Nc3cc(C(=O)Nc4ccc(S(=O)(=O)O)c5cc(S(=O)(=O)O)cc(S(=O)(=O)O)c45)ccc3C)c2)c1` [SURAMIN]: the ED50 in experiment [1] turned out to be 50 µg/mL (≈ 38.5 µM); in experiment [2], 21 µg/mL; in experiment [4], 167 µg/mL. For the same molecule, the EC50 in experiment [3] was 603 µg/mL (≈ 465 µM). For the same molecule, in experiment [5], the Inhibition was found to be 44%.

Take `O=S(=O)([O-])c1cc(NS(=O)(=O)c2ccc3c(S(=O)(=O)Nc4cc(S(=O)(=O)[O-])cc(S(=O)(=O)[O-])c4)cc(S(=O)(=O)Nc4cc(S(=O)(=O)[O-])cc(S(=O)(=O)[O-])c4)cc3c2)cc(S(=O)(=O)[O-])c1.[Na+].[Na+].[Na+].[Na+].[Na+].[Na+]`: the ED50 was 12 µg/mL in experiment [1], 0.7 µg/mL in experiment [2] and 21 µg/mL in experiment [4]. For the same molecule, in experiment [3], the EC50 turned out to be 21 µg/mL. For the same molecule, the Inhibition in experiment [5] was 86%.

`Nc1ccc2cc(S(=O)(=O)[O-])cc(O)c2c1/N=N/c1ccc(NC(=O)Nc2ccc(/N=N/c3c(N)ccc4cc(S(=O)(=O)[O-])cc(O)c34)c(S(=O)(=O)[O-])c2)cc1S(=O)(=O)[O-].[Na+].[Na+].[Na+].[Na+]`: the values for the ED50 in experiment [1], in experiment [2] and in experiment [4] were 6 µg/mL, 21 µg/mL and 167 µg/mL, respectively. Besides, the Activity in experiment [3] is 113 µg/mL. In addition, the Inhibition in experiment [5] is on record as more than 95%.
